Where a name gives a salt, the structure may show the parent alone.

The test system of one assay is TAC mice. Nature of the assay: Acute effect on mouse models of heart failure (TAC, single injection 5 weeks later). It is filed as in vivo. Conditions: TAC mice 5 weeks after TAC, 50 mg/kg, echocardiography before and 10 minutes after injection. The protocol:
Transverse aortic constriction (TAC) was performed as described previously [Date, et al. (2002) The antioxidant N-2-mercaptopropionyl glycine attenuates left ventricular hypertrophy in in vivo murine pressure-overload model. J Am Coll Cardiol 39: 907-912.]. Briefly, 8- to 10-week-old mice were anesthetized with anesthetic (0.3 mg/kg of medetomidine, 4.0 mg/kg of midazolam, and 5.0 mg/kg of butorphanol) administered intraperitoneally, and the proximal portion of the sternum was cut open to visualize the aorta. A 7-0 silk suture was placed around the aortic arch distal to the brachiocephalic artery. The suture was tightened firmly around a blunt 26-gauge needle placed adjacent to the aorta. The needle was then removed, and the chest and overlying skin were closed. Sham-operated mice underwent an identical surgical procedure without ligation of the aortic arch. At the end of the operation, 0.3 mg/kg of atipamezole was administered subcutaneously to reverse medetomidine. FIG. 1 is a schematic diagram of TAC.
To analyze the cardiac function, we used Vevo® 2100 (VISUALSONICS) at the indicated time points after TAC operation. Mice were kept under inhalation anesthesia with 2.5% isoflurane. LV function was measured in M mode of the parasternal short-axis view.
Mice were subjected to TAC at 8 weeks of age. Five weeks later (at 13 weeks of age), the mice were injected with KUS121 (50 mg/kg), and left ventricular ejection fraction (LVEF), left ventricular end-diastolic diameter (LVDd), and heart rate (HR) were assessed by echocardiography before and 10 minutes after the injection.
Mice were subjected to TAC at 8 weeks of age. Five weeks later (at 13 weeks of age), the mice were injected with KUS121 (50 mg/kg), and left ventricular pressure was measured by catheterization before and 10 minutes after the injection. The left ventricular pressure was 46.6 mmHg before KUS121 administration, and increased to 128.9 mmHg 10 minutes after the administration. In addition, Max/min dp/dt was changed from 1295.5/−621.4 mmHg/s to 3972.8/−1311.1 mmHg/s. […] Left ventricular ejection fraction was then measured over time and was 37% before KUS121 administration, increased to 67% 5 minutes after the administration, and returned to the baseline about 2 hours after the administration (FIG. 16).
Mice were subjected to TAC at 8 weeks of age. Five weeks later (at 13 weeks of age), the mice were injected with KUS187 (50 mg/kg), and left ventricular ejection fraction was assessed by echocardiography before and 10 minutes after the injection.

The test system of assay [1] is beagle dog models of heart failure. Nature of the assay: Beagle dog models of rapid ventricular pacing-induced heart failure. The note with it: infusion per FIG. 17 protocol. It is filed as in vivo. The method, then:
After induction of general anesthesia with thiopental sodium (20 mg/kg, i.v.: 0.5 g of Labonal injection, Nipro ES Pharma Corporation) in 10- to 12-month-old male beagle dogs (9.80-11.50 kg), a tracheal cannula was inserted into the airway, and artificial respiration was performed with an Acoma veterinary ventilator (PRO-45Va, Acoma Medical Corporation). Anesthesia was maintained by inhalation of a gas mixture (Air:O2=3:0.2) and 1.0 to 2.5% isoflurane (isoflurane inhalation solution “Pfizer”, Mylan Seiyaku Co., Ltd.) using an Acoma animal anesthesia machine (NS-5000A, Acoma Medical Industry Co., Ltd.) to maintain a constant depth of anesthesia. An incision was made in the right side of the neck of the animal, an animal internal cardiac pacemaker (SIP-501, Star Medical Corporation) was implanted subcutaneously, a retractable screw-in reed (Tendril STS J, St. Jude Medical, Inc.) was inserted through the right jugular vein under X-ray fluoroscopy (BV Pulsera, Koninklijke Philips N.V.), and the tip was implanted in the right ventricular wall. Pacing was started at 244-251 beats/min on postoperative day 1. Dogs with ejection fraction (EF) decreasing to 30-50% at 4 weeks after pacemaker activation were considered to have heart failure and subjected to analysis.
Echocardiography was performed using a general-purpose ultrasound imaging system (Vivid S6, GE Medical Systems). The left ventricular end-diastolic diameter (LVIDd), left ventricular end-systolic diameter (LVIDs), ejection fraction (EF), and left ventricular internal diameter shortening (% FS) were measured in M-mode by placing a sector probe (10 MHz) on the chest.
Dogs were anesthetized intravenously with 14.5 to 22.3 mg/kg of secobarbital sodium (Injectable Ionar sodium (0.2), Nichi-Iko Co., Ltd.), followed by subcutaneous administration of 0.2 mg/kg of meloxicam (Metacam 0.5% injection, Boehringer Ingelheim Animal Health Japan Co.). A tracheal tube was inserted into the airway and connected to an Acoma animal ventilator (PRO-45Va, Acoma Medical Industry Co., Ltd.). The ventilator was set at a respiratory rate of 14-18 strokes/min and a tidal volume of 10-20 mL/kg/stroke, and respiration was controlled by an Acoma animal anesthesia machine (NS-5000A, Acoma Medical Industry Co., Ltd.) using a gas mixture (FiO2=0.3-1.0). The exhaled CO2 partial pressure was monitored using an exhaled carbon dioxide monitor (OLG-2800, Nihon Kohden Corporation). The animals were fixed in the dorsal position and the thighs and neck were shom. Anesthesia was maintained by continuous intravenous infusion of sodium secobarbital (5 mg/kg/hr) through the radial cutaneous vein using a Telfusion syringe pump (STC-523, Terumo Corporation). A Swan-Ganz catheter was inserted through the left femoral vein. A catheter for coronary angiography was inserted through the left femoral artery. A 5F sheath for arterial blood sampling was placed in the right femoral artery. A catheter for PV-loop analysis was inserted from the left internal carotid artery. An 8F occlusion balloon was placed from the right femoral vein for occlusion testing. In addition, KUS121 was administered from the left common jugular vein.
Beagle dog models of heart failure were prepared by rapid ventricular pacing. Cardiac function was assessed by echocardiography before KUS121 administration and after continuous infusion at 40 mg/h. KUS121 increased LVEF, even if it was based on either of the Teichholz method and the modified-Simpson's method, and increased % FS (FIG. 18). Changes in heart rate, systolic blood pressure, diastolic blood pressure, left ventricular ejection fraction, mean pulmonary artery pressure, pulmonary capillary wedge pressure, left ventricular end-diastolic pressure, and adjusted dp/dt are shown in FIGS. 19 to 21. […]

For `CCCCOc1c(C=O)cc(C)cc1-c1ccc(/N=N/c2cc(S(=O)(=O)O)c3ccccc3c2N)cn1` [KUS187, 4-amino-3-[6-(3-formyl-2-butoxy-5-methylphenyl)pyridine-3-ylazo]naphthalene-1-sulfonic acid sodium salt], the “left ventricular ejection fraction (LVEF)” value in the assay with TAC mice was “increased”. As for `CC(CCc1ccc(O)cc1)NCCc1ccc(O)c(O)c1` (stereo not drawn) [dobutamine, reference compound], in assay [1], the heart rate entry was “increased heart rate” and the “left ventricular systolic function” value is on record as “improved”.

The record behind these values is US20250057823A1, “COMPOSITION FOR IMPROVING CARDIAC FUNCTION” (Kyoto University, priority 2021, published 2025).
